Measurements taken from patent US20220135571A1, “THERAPEUTIC EGFR INHIBITORS” (Hoffmann-La Roche Inc., priority 2019, published 2022).
Where a name gives a salt, the structure may show the parent alone.

Key:
[1] = molecular target: T1, EGFR TMLRCS (T790M/L858R/C797S), BaF3-TMLRCS cell line (Homo sapiens, UniProt P00533, C797S/L858R/T790M); assay: HTRF Phospho EGFR TMLRCS Assay (Cellular); format: cell-based; settings: BaF3-TMLRCS cells, 4 hours compound incubation
T1 construct: host or cells: BaF3
T1 sequence (P00533 25-1210 T790M/C797S/L858R): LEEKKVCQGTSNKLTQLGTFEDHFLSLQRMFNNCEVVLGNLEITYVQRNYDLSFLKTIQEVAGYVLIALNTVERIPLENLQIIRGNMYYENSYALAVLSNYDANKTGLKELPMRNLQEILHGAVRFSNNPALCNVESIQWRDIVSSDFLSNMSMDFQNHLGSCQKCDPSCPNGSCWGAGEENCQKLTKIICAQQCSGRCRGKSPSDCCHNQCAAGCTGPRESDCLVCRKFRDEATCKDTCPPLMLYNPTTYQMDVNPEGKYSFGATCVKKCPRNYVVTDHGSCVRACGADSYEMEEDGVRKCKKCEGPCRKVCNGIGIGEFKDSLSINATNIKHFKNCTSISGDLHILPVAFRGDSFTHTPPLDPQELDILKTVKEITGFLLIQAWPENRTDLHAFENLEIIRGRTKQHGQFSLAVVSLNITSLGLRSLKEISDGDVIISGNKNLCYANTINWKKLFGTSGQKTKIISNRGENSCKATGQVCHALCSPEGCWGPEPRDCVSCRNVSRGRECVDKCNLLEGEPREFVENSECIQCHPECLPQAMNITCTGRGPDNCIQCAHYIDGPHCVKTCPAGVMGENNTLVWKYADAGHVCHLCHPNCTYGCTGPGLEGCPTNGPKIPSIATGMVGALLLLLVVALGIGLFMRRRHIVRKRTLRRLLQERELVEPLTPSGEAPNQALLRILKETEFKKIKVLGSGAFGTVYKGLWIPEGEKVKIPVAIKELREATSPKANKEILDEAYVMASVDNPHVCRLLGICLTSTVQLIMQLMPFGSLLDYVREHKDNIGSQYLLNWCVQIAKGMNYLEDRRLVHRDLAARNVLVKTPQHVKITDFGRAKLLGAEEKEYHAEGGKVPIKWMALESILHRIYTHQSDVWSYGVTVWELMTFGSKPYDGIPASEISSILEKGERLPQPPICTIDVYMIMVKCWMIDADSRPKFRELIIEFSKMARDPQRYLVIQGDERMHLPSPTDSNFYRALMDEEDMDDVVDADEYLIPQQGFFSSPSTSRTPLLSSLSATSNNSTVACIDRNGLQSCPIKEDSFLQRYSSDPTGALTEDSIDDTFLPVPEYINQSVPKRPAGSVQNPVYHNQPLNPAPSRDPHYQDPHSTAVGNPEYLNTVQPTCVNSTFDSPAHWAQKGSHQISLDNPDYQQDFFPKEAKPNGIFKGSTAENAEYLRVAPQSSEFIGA
Protocol: HTRF Phospho EGFR TMLRCS Assay (Cellular)
BaF3-TMLRCS cell line were obtained from Crownbio (San Diego, Calif., USA). Cells were maintained at 37° C., 5% CO2 in RPMI ATCC (Gibco 31870)+2 mM Glutamine+0.5 μg/ml Puromycin supplemented with 10% fetal bovine serum (FBS) (Gibco).
Cells are transferred as above to Greiner Bio-One, Nr. 784-08 micro-titerplate at 20000 cells/well in 12.5 μl of growth medium/well after the plates had been pre-filled with 12.5 nl of DMSO solutions of the to be tested compounds (in dose response) or DMSO only. After spinning the plates at 300×g for 30 seconds the cells were incubated for 4 hours at 37 C, 5% CO2, 95% humidity. The cells were lysed by adding to the compound mix 4 µl/well of the supplemented lysis buffer (Cis-bio, Phospho-EGFR HTRF kit, 64EG1PEH), followed by incubation for 30 min at room temperature with shaking (400 rpm). The plates were then frozen and stored overnight at −80 C. On the next day and after thawing the plates, 4 μl of a mixture of anti-Phospho-EGFR Cryptate and of anti-Phospho-EGFR-d2 antibody solutions prepared in the supplied detection buffer was added to each well. The lidded plates were then incubated for 4 h at room temperature before reading the fluorescence emission at 616 and 665 nm using an Envision reader (Perkin Elmer). Data was analyzed in similar fashion as above using the normalized ratio of the 665 to 616 signals multiplied by 10000.

[2] = molecular target: T2, EGFR TMLR (T790M/L858R), H1975 cell line (Homo sapiens, UniProt P00533, L858R/T790M); assay: HTRF Phospho EGFR TMLR Assay (Cellular); format: cell-based; settings: H1975 cells, 16 hours compound incubation
T2 construct: H1975 cell line (CRL-5908; Lot BA70803) was obtained from American Type Culture Collection; host or cells: H1975
T2 sequence (P00533 25-1210 T790M/L858R): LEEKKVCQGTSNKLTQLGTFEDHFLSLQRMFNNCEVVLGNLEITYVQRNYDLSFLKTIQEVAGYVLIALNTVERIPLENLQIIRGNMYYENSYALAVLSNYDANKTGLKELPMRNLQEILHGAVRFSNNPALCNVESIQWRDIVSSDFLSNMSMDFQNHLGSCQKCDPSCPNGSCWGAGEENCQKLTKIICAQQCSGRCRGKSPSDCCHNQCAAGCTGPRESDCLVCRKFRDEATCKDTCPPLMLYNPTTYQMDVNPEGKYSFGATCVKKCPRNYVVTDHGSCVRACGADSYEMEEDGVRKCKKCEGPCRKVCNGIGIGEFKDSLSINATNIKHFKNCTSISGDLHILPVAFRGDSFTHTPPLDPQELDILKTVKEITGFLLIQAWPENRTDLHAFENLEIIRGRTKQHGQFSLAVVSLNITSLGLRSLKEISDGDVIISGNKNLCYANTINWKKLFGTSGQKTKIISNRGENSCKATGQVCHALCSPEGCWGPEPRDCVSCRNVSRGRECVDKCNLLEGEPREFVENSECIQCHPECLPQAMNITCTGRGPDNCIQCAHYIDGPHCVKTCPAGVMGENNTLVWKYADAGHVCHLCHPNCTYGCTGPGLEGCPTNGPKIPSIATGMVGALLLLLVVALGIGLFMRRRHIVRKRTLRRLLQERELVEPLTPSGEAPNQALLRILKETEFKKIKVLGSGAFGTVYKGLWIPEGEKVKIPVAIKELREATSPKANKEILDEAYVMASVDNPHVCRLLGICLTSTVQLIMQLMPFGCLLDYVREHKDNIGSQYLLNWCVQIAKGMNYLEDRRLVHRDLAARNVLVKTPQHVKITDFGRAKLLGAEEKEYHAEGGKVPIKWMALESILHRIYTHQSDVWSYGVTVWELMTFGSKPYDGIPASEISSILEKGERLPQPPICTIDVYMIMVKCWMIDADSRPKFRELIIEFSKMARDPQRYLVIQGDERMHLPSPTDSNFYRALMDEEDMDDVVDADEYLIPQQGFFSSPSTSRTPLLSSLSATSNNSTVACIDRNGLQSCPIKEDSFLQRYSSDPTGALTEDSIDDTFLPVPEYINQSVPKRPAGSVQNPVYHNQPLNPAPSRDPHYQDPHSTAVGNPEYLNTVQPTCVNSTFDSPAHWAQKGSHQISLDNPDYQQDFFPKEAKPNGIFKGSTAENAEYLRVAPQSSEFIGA
Protocol: HTRF Phospho EGFR TMLR Assay (Cellular)
H1975 cell line (CRL-5908; Lot BA70803) was obtained from American Type Culture Collection (Manassas, Va., USA). Cells were maintained at 37° C., 5% CO2 in complete Media RPMI 1640 without phenol red containing 0.3 mg/ml glutamine, 100 IU/ml penicillin, and […] streptomycin (Gibco, 15140-122) supplemented with 10% fetal bovine serum (FBS, Gibco, 10091-148). Compounds were diluted into starving medium RPMI 1640 Media (Gibco, 11835-030) without phenol red containing 0.3 mg/ml glutamine, 100 IU/ml penicillin, and […] streptomycin (Gibco).
Cells were cultured for 24 h in a 384-well plate (Greiner Bio-One, Nr. 784-080; 5000 cells/well) using 8 μl of complete medium/well. Then 4 µl/well of the 3× compound solution, containing a factor 3 dilution series of the compound or DMSO in starving medium, were added to the cells (final DMSO 0.33%). After 16 hours at 37° C., 5% CO2, 95% rel. humidity cells were lysed by adding to the compound mix 4 µl/well of the supplemented lysis buffer (Cis-bio, Phospho-EGFR HTRF kit, 64EG1PEH), followed by incubation for 30 min at room temperature with shaking (400 rpm). Then 4 μl of a mixture of anti-Phospho-EGFR Cryptate and of anti-Phospho-EGFR-d2 antibody solutions prepared in the detection buffer was added. The plates were then incubated for 4 h at room temperature before reading the fluorescence emission at 620 and 665 nm using an Envision reader (Perkin Elmer).

CCN1CCN(c2ccc(-c3cc(Cl)c4cn(C(C(=O)Nc5nccs5)c5ncn6c5CCC6)nc4c3Cl)cc2)CC1 (stereo not drawn) [Example 13, 2-(4,7-Dichloro-6-(4-(4-ethylpiperazin-1-yl)phenyl)-2H-indazol-2-yl)-2-(6,7-dihydro-5H-pyrrolo[1,2-c]imidazol-1-yl)-N-(thiazol-2-yl)acetamide]
IC50 [1]: 11 nM
IC50 [2]: 1 nM

O=C(Nc1nccs1)C(c1ncn2c1CCC2)n1cc2c(Cl)cc(-c3ccc(N4CCNCC4)cc3)cc2n1 (stereo not drawn) [Example 1, 2-(4-Chloro-6-(4-(piperazin-1-yl)phenyl)-2H-indazol-2-yl)-2-(6,7-dihydro-5H-pyrrolo[1,2-c]imidazol-1-yl)-N-(thiazol-2-yl)acetamide hydrochloride]
IC50 [1]: 7 nM
IC50 [2]: 3 nM

CCN1CCN(c2ccc(-c3cc(Cl)c4cn(C(C(=O)Nc5nccs5)c5ncn6c5CCC6)nc4c3)cc2Cl)CC1 (stereo not drawn) [Example 4, 2-(4-Chloro-6-(3-chloro-4-(4-ethylpiperazin-1-yl)phenyl)-2H-indazol-2-yl)-2-(6,7-dihydro-5H-pyrrolo[1,2-c]imidazol-1-yl)-N-(thiazol-2-yl)acetamide]
IC50 [1]: 14 nM
IC50 [2]: 11 nM

CCN1CCN(c2ccc(-c3cc(Cl)c4cn(C(C(=O)Nc5nccs5)c5ncn6c5C[C@@H](F)C6)nc4c3OC)cc2)CC1 (mixture of isomers) [Example 21, 2-[4-Chloro-6-[4-(4-ethylpiperazin-1-yl)phenyl]-7-methoxyindazol-2-yl]-2-[rac-(6R)-6-fluoro-6,7-dihydro-5H-pyrrolo[1,2-c]imidazol-1-yl]-N-(1,3-thiazol-2-yl)acetamide]
IC50 [2]: 3 nM

CC(=O)N1CCN(c2ccc(-c3cc(F)c4cn(C(C(=O)Nc5nccs5)c5ncn6c5C[C@@H](F)C6)nc4c3)cc2Cl)CC1 (stereo partly drawn) [Example 7, 2-(6-(4-(4-Acetylpiperazin-1-yl)-3-chlorophenyl)-4-fluoro-2H-indazol-2-yl)-2-((R)-6-fluoro-6,7-dihydro-5H-pyrrolo[1,2-c]imidazol-1-yl)-N-(thiazol-2-yl)acetamide]
IC50 [2]: 1 nM

CC(=O)N1CCN(c2ccc(-c3cc(Cl)c4cn(C(C(=O)Nc5nccs5)c5ncn6c5CCC6)nc4c3Cl)cc2)CC1 (stereo not drawn) [Example 12, 2-(6-(4-(4-Acetylpiperazin-1-yl)phenyl)-4,7-dichloro-2H-indazol-2-yl)-2-(6,7-dihydro-5H-pyrrolo[1,2-c]imidazol-1-yl)-N-(thiazol-2-yl)acetamide]
IC50 [2]: 1 nM

O=C(Nc1nccs1)C(c1ncn2c1CCC2)n1cc2c(Cl)cc(-c3ccc(N4CCNCC4)c(Cl)c3)cc2n1 (stereo not drawn) [Example 3, 2-(4-Chloro-6-(3-chloro-4-(piperazin-1-yl)phenyl)-2H-indazol-2-yl)-2-(6,7-dihydro-5H-pyrrolo[1,2-c]imidazol-1-yl)-N-(thiazol-2-yl)acetamide hydrochloride]
IC50 [2]: 9 nM

CC(=O)N1CCN(c2ccc(-c3cc(Cl)c4cn(C(C(=O)Nc5nccs5)c5ncn6c5CCC6)nc4c3)cc2)CC1 (stereo not drawn) [Example 2, 2-(6-(4-(4-Acetylpiperazin-1-yl)phenyl)-4-chloro-2H-indazol-2-yl)-2-(6,7-dihydro-5H-pyrrolo[1,2-c]imidazol-1-yl)-N-(thiazol-2-yl)acetamide]
IC50 [1]: 5 nM
IC50 [2]: 0.4 nM

COc1c(-c2ccc3c(c2)CCC(=O)N3C)cc(Cl)c2cn(C(C(=O)Nc3nccs3)c3ncn4c3C[C@@H](F)C4)nc12 (mixture of isomers) [Example 20, 2-[4-Chloro-7-methoxy-6-(1-methyl-2-oxo-3,4-dihydroquinolin-6-yl)indazol-2-yl]-2-[rac-(6R)-6-fluoro-6,7-dihydro-5H-pyrrolo[1,2-c]imidazol-1-yl]-N-(1,3-thiazol-2-yl)acetamide]
IC50 [2]: 1 nM

O=C(Nc1nccs1)C(c1ncn2c1CCC2)n1cc2c(Cl)cc(-c3ccc(N4CCNCC4)cc3)c(F)c2n1 (stereo not drawn) [Example 15, 2-(4-Chloro-7-fluoro-6-(4-(piperazin-1-yl)phenyl)-2H-indazol-2-yl)-2-(6,7-dihydro-5H-pyrrolo[1,2-c]imidazol-1-yl)-N-(thiazol-2-yl)acetamide hydrochloride]
IC50 [2]: 2 nM

CCN1CCN(c2ccc(-c3cc(Cl)c4cn(C(C(=O)Nc5nccs5)c5ncn6c5CCC6)nc4c3F)cc2)CC1 (stereo not drawn) [Example 16, 2-(4-Chloro-6-(4-(4-ethylpiperazin-1-yl)phenyl)-7-fluoro-2H-indazol-2-yl)-2-(6,7-dihydro-5H-pyrrolo[1,2-c]imidazol-1-yl)-N-(thiazol-2-yl)acetamide]
IC50 [2]: 2 nM

O=C(Nc1nccs1)C(c1ncn2c1CCC2)n1cc2c(Cl)cc(-c3ccc(N4CCNCC4)cc3)c(Cl)c2n1 (stereo not drawn) [Example 9, 2-(4,7-Dichloro-6-(4-(piperazin-1-yl)phenyl)-2H-indazol-2-yl)-2-(6,7-dihydro-5H-pyrrolo[1,2-c]imidazol-1-yl)-N-(thiazol-2-yl)acetamide hydrochloride]
IC50 [2]: 2 nM

CN1C(=O)CCc2cc(-c3cc(Cl)c4cn(C(C(=O)Nc5nccs5)c5ncn6c5CCC6)nc4c3F)ccc21 (stereo not drawn) [Example 18, 2-(4-Chloro-7-fluoro-6-(1-methyl-2-oxo-1,2,3,4-tetrahydroquinolin-6-yl)-2H-indazol-2-yl)-2-(6,7-dihydro-5H-pyrrolo[1,2-c]imidazol-1-yl)-N-(thiazol-2-yl)acetamide]
IC50 [2]: 1 nM

CC(C)n1ccc(-c2cc(Cl)c3cn(C(C(=O)Nc4nccs4)c4ncn5c4CCC5)nc3c2F)cc1=O (stereo not drawn) [Example 23, 2-(4-Chloro-7-fluoro-6-(1-isopropyl-2-oxo-1,2-dihydropyridin-4-yl)-2H-indazol-2-yl)-2-(6,7-dihydro-5H-pyrrolo[1,2-c]imidazol-1-yl)-N-(thiazol-2-yl)acetamide]
IC50 [2]: 1 nM

COc1c(-c2ccc(C3CCN(C4CC4)CC3)cc2)cc(Cl)c2cn(C(C(=O)Nc3nccs3)c3ncn4c3C[C@@H](F)C4)nc12 (mixture of isomers) [Example 22, 2-[4-Chloro-6-[4-(1-cyclopropylpiperidin-4-yl)phenyl]-7-methoxyindazol-2-yl]-2-[rac-(6R)-6-fluoro-6,7-dihydro-5H-pyrrolo[1,2-c]imidazol-1-yl]-N-(1,3-thiazol-2-yl)acetamide]
IC50 [2]: 5 nM

CCN1CCN(c2ccc(-c3cc(F)c4cn(C(C(=O)Nc5nccs5)c5ncn6c5C[C@@H](F)C6)nc4c3)cc2Cl)CC1 (stereo partly drawn) [Example 8, 2-(6-(3-Chloro-4-(4-ethylpiperazin-1-yl)phenyl)-4-fluoro-2H-indazol-2-yl)-2-((R)-6-fluoro-6,7-dihydro-5H-pyrrolo[1,2-c]imidazol-1-yl)-N-(thiazol-2-yl)acetamide]
IC50 [2]: 5 nM

O=C(Nc1nccs1)C(c1ncn2c1C[C@@H](F)C2)n1cc2c(F)cc(-c3ccc(N4CCNCC4)c(Cl)c3)cc2n1 (stereo partly drawn) [Example 6, 2-(6-(3-Chloro-4-(piperazin-1-yl)phenyl)-4-fluoro-2H-indazol-2-yl)-2-((R)-6-fluoro-6,7-dihydro-5H-pyrrolo[1,2-c]imidazol-1-yl)-N-(thiazol-2-yl)acetamide hydrochloride]
IC50 [2]: 3 nM
